14 molecules from patent US20070105864A1, “Methods for inhibiting protein kinases” (Schering Corporation, priority 2005, published 2007) can be followed below.

The target of test [1] is T1, recombinant His-CHK1 (Homo sapiens, UniProt O14757).
T1 construct: His-CHK1, In House Lot P976, MW ˜30 KDa, stored at −80 °C; fused on or other part: His tag
T1 sequence (O14757 1-265 limits assumed): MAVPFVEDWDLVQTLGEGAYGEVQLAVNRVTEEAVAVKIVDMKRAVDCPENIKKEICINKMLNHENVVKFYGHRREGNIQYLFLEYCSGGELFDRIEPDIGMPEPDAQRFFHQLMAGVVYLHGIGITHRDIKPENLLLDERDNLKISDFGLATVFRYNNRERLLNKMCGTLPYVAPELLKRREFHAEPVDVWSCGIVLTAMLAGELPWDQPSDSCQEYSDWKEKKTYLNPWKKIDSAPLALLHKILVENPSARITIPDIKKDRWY
Nature of the test: CHK1 SPA Assay. The test is classed as biochemical. Conditions: read-out: CHK-1 IC50. Here is the method:
An in vitro assay was developed that utilizes recombinant His-CHK1 expressed in the baculovirus expression system as an enzyme source and a biotinylated peptide based on CDC25C as substrate (biotin-[…]).
1) CDC25C Ser 216 C-term Biotinylated peptide substrate (25 mg), stored at −20 °C, Custom Synthesis by Research Genetics: biotin-[…] 2595.4 MW
2) His-CHK1 In House lot P976, 235 ug/mL, stored at −80 °C.
1) Kinase Buffer: 50 mM Tris pH 8.0; 10 mM MgCl2; 1 mM DTT
2) His-CHK1, In House Lot P976, MW ˜30 KDa, stored at −80 °C. […] For 1 plate (100 r×n): dilute 8 μL of 235 μg/mL (7.83 uM) stock in 2 mL Kinase Buffer. This makes a 31 nM mixture. Add 20 μL/well. This makes a final reaction concentration of 6 nM.
3) CDC25C Biotinylated peptide.
Dilute CDC25C to 1 mg/mL (385 uM) stock and store at −20° C. For 1 plate (100 r×n): dilute 10 1L of 1 mg/mL peptide stock in 2 ml Kinase Buffer. This gives a 1.925 μM mix. Add 20 1L/r×n. This makes a final reaction concentration of 385 nM.
For 1 plate (100 r×n): dilute 10 μL of 1 mM ATP (cold) stock and 2 uL fresh P33-ATP (20 μCi) in 5 ml Kinase Buffer. This gives a 2 μM ATP (cold) solution; add 50 μl/well to start the reaction. Final volume is 100 μl/r×n so the final reaction concentrations will be 1 μM ATP (cold) and 0.2 uCi/r×n.
For 1 plate add: To 10 mL Wash Buffer 2 (2M NaCl 1% H3PO4): 1 mL SPA bead slurry (50 mg); Add 100 μL/well
6) Wash buffer 1: 2 M NaCl
7) Wash buffer 2: 2 M NaCl, 1% H3PO4
Dispense 10 μl/r×n to appropriate wells. Add 10 μL 10% DMSO to positive (CHK1+CDC25C+ATP) and negative (CHK1+ATP only) control wells. 2) Thaw enzyme on ice—dilute enzyme to proper concentration in kinase buffer (see Reaction Mixtures) and dispense 20 μl to each well. 3) Thaw the Biotinylated substrate on ice and dilute in kinase buffer (see Reaction Mixtures). Add 20 μL/well except to negative control wells. Instead, add 20 uL Kinase Buffer to these wells. 4) Dilute ATP (cold) and P33-ATP in kinase buffer (see Reaction Mixtures). Add 50 μL/well to start the reaction. 5) Allow the reaction to run for 2 hours at room temperature. 6) Stop reaction by adding 100 uL of the SPA beads/stop solution (see Reaction Mixtures) and leave to incubate for 15 minutes before harvest 7) Place a blank Packard GF/B filter plate into the vacuum filter device (Packard plate harvester) and aspirate […] water through to wet the system. 8) Take out the blank and put in the Packard GF/B filter plate. 9) Aspirate the reaction through the filter plate. 10) Wash: 200 ml each wash; 1× with 2M NaCl; 1× with 2M NaCl/1% H3PO4 11) Allow filter plate to dry 15 min. 12) Put TopSeal-A adhesive on top of filter plate. 13) Run filter plate in Top Count
Settings: • Data mode: CPM • Radio nuclide: Manual SPA:P33 • Scintillator: Liq/plast • Energy Range: Low
(§1) IC50 DETERMINATIONS: Dose-response curves were plotted from inhibition data generated, each in duplicate, from 8 point serial dilutions of inhibitory compounds. Concentration of compound was plotted against % kinase activity, calculated by CPM of treated samples divided by CPM of untreated samples. To generate IC50 values, the dose-response curves were then fitted to a standard sigmoidal curve and IC50 values were derived by nonlinear regression analysis.

Test [2] has as its target T2, Cyclin E/CDK2 (Homo sapiens, UniProt P24941).
T2 construct: made in house; host or cells: SF9 cells (baculovirus co-infection)
Nature of the test: CDK2 Assay (Cyclin E/CDK2 in vitro kinase assay). Conditions: read-out: CDK2 IC50. The test is classed as biochemical.
Text: BACULOVIRUS CONSTRUCTIONS: Cyclin E was cloned into pVL1393 (Pharmingen, La Jolla, Calif.) by PCR, with the addition of 5 histidine residues at the amino-terminal end to allow purification on nickel resin. The expressed protein was approximately 45 kDa. CDK2 was cloned into pVL1393 by PCR, with the addition of a haemaglutinin epitope tag at the carboxy-terminal end (YDVPDYAS). The expressed protein was approximately 34 kDa in size.
ENZYME PRODUCTION: Recombinant baculoviruses expressing cyclin E and CDK2 were co-infected into SF9 cells at an equal multiplicity of infection (MOI=5), for 48 hrs. Cells were harvested by centrifugation at 1000 RPM for 10 minutes, then pellets lysed on ice for 30 minutes in five times the pellet volume of lysis buffer containing 50 mM Tris pH 8.0, 1 50 mM NaCl, 1% NP40, 1 mM DTT and protease inhibitors (Roche Diagnostics GmbH, Mannheim, Germany). Lysates were spun down at 15000 RPM for 10 minutes and the supernatant retained. 5 ml of nickel beads (for one liter of SF9 cells) were washed three times in lysis buffer (Qiagen GmbH, Germany). Imidazole was added to the baculovirus supernatant to a final concentration of 20 mM, then incubated with the nickel beads for 45 minutes at 4° C. Proteins were eluted with lysis buffer containing 250 mM imidazole. Eluate was dialyzed overnight in 2 liters of kinase buffer containing 50 mM Tris pH 8.0, 1 mM DTT, 10 mM MgCl2, 100 uM sodium orthovanadate and 20% glycerol. Enzyme was stored in aliquots at −70° C.
IN VITRO KINASE ASSAY: Cyclin E/CDK2 kinase assays were performed in low protein binding 96-well plates (Corning Inc, Corning, N.Y.). Enzyme was diluted to a final concentration of 50 μg/ml in kinase buffer containing 50 mM Tris pH 8.0, 10 mM MgCl2, 1 mM DTT, and 0.1 mM sodium orthovanadate. The substrate used in these reactions was a biotinylated peptide derived from Histone H1 (from Amersham, UK). The substrate was thawed on ice and diluted to 2 μM in kinase buffer. Compounds were diluted in 10% DMSO to desirable concentrations. For each kinase reaction, 20 μl of the 50 µg/ml enzyme solution (1 μg of enzyme) and 20 μl of the 2 μM substrate solution were mixed, then combined with 10 μl of diluted compound in each well for testing. The kinase reaction was started by addition of 50 μl of 2 μM ATP and 0.1 μCi of 33P-ATP (from Amersham, UK). The reaction was allowed to run for 1 hour at room temperature. The reaction was stopped by adding 200 μl of stop buffer containing 0.1% Triton X-100, 1 mM ATP, 5 mM EDTA, and 5 mg/ml streptavidine coated SPA beads (from Amersham, UK) for 15 minutes. The SPA beads were then captured onto a 96-well GF/B filter plate (Packard/Perkin Elmer Life Sciences) using a Filtermate universal harvester (Packard/Perkin Elmer Life Sciences.). Non-specific signals were eliminated by washing the beads twice with 2M NaCl then twice with 2 M NaCl with 1% phosphoric acid. The radioactive signal was then measured using a TopCount 96 well liquid scintillation counter (from Packard/Perkin Elmer Life Sciences).
as §1

As to `Cc1cc(Nc2nc(C3=CCCNC3)cn3c(-c4cnn(C)c4)cnc23)sc1C(=O)NC1CCN(S(C)(=O)=O)CC1`, the IC50 in test [1] turned out to be 24 nM; in test [2] it was 41000 nM.

With `Cn1cc(-c2cnc3c(Nc4ccc(-n5ccnc5)cc4)nc(C4=CCCNC4)cn23)cn1` [drawing 1445], the figures for the IC50 in test [1] and in test [2] were 97 nM and 12500 nM, respectively.

Turning to `CCNC(=O)c1sc(Nc2nc(CCN)cn3c(-c4cnn(C)c4)cnc23)cc1C`, the values for the IC50 in test [1] and in test [2] were 15 nM and 41300 nM, respectively.

Consider `Cn1cc(-c2cnc3c(Nc4sncc4C4CCCNC4)nccn23)cn1` (stereo not shown), for which the IC50 in test [1] came to 18 nM; in test [2] it was 21800 nM.

Regarding `Cc1cnsc1Nc1nc(CCCN)cn2c(-c3cnn(C)c3)cnc12`, the half-maximal inhibitory concentration (IC50) was determined as 5 nM in test [1] and 1910 nM in test [2].

For the molecule `Cc1cc(Nc2nc(C3=CCCNC3)cn3c(-c4cnn(C)c4)cnc23)sc1-c1cnn(C)c1`, the IC50 was 19 nM in test [1] and 4590 nM in test [2].

Consider `Cc1cc(Nc2nc(C3=CCCNC3)cn3c(-c4cnn(C)c4)cnc23)sc1S(=O)(=O)NC1CC1` [drawing 1469], for which the IC50 in test [1] amounted to 3 nM; in test [2] it was 1580 nM.

Consider `Cc1cc(Nc2nc(C3CCCNC3)cn3c(-c4cnn(C)c4)cnc23)sn1` (stereo not shown), for which the IC50 in test [1] worked out at 13 nM; in test [2], 1100 nM.

On to `Cc1cc(Nc2nc(C3=CCCNC3)cn3c(-c4cnn(C)c4)cnc23)sn1`, for which the IC50 in test [1] was determined as 14 nM; in test [2] it was 11000 nM.

On to `Cc1cc(Nc2nc(C3=CCCNC3)cn3c(-c4cnn(C)c4)cnc23)sc1S(=O)(=O)C(C)C`, for which the values for the IC50 in test [1] and in test [2] were 5 nM and 4790 nM, respectively.

Take `Cn1cc(-c2cnc3c(Nc4cc(C5CCNCC5)ns4)nccn23)cn1`: the IC50 in test [1] was determined as 31 nM; in test [2], 18100 nM.

Regarding `CCN(CC)S(=O)(=O)c1sc(Nc2nc(C3=CCCNC3)cn3c(-c4cnn(C)c4)cnc23)cc1C`, the IC50 in test [1] is 19 nM; in test [2] it was 18300 nM.

As to `Cc1cc(Nc2nc(C3=CCCNC3)cn3c(-c4cnn(C)c4)cnc23)sc1S(=O)(=O)NCCO`, the IC50 in test [1] came out at 6 nM; in test [2], 4680 nM.

As for `Cn1cc(-c2cnc3c(Nc4ccc(-n5ccnc5)cc4)nc(C4=CCCNC4)cn23)cn1` [drawing 1440], the IC50 in test [1] amounted to 97 nM; in test [2], 12500 nM.

Usually IC50 stands for the midpoint of a concentration-inhibition curve.
